In patent publication US9974785B2, “Aromatic heterocyclic derivatives and pharmaceutical applications thereof” (SUNSHINE LAKE PHARMA CO., LTD., priority 2014, dated 2018):

target: human 5-HT6 receptor (Homo sapiens (Human), UniProt P50406); assay: Radioligand binding assay, human 5-HT6 receptor expressed in CHO cell; settings: 2 nM [3H]LSD
Protocol: Example A: The Binding Affinities of the Compounds of this Invention to Human 5-HT6 Receptor Expressed in CHO Cell were Evaluated by Radioligand Binding Assay as Follows
32 μg membrane proteins of CHO cell expressing human 5-HT6 receptor, 2 nM of radioactive marker [3H]LSD, a compound of the present invention having different test concentrations, 100 μM 5-HT (5-HT was used to eliminate nonspecific binding sites) and a buffer solution were mixed uniformly. Then the resulting mixture was incubated at 37° C. for 120 min, in which the buffer solution comprised 50 mM Tris-HCl (pH 7.4), 10 mM MgCl2, 0.5 mM EDTA, 10 μM pargyline and 20 mg/L protease inhibitor.
After incubation, the resulting mixture was filtered by a fiberglass filter (GF/B, Packard) in vacuo, and the filter membrane of the fiberglass filter was preimpregnated with 0.3% PEI before the filtering and washed with 50 mM of Tris-HCl for several times after the filtering. After the filter membrane was dried, and the radioactivity of filter membrane was determined by liquid scintillation counting by using a scintillometer (Topcount, Packard). The reference standard was 5-HT, and competitive inhibition curves were plotted based on several inhibition ratios and the corresponding compound concentrations. IC50 values were calculated by non-linear regression analysis using Hill equation curves, and the Ki values were calculated from IC50 by using the ChengPrusoff equation.

human 5-HT6 receptor, sequence (P50406 whole entry): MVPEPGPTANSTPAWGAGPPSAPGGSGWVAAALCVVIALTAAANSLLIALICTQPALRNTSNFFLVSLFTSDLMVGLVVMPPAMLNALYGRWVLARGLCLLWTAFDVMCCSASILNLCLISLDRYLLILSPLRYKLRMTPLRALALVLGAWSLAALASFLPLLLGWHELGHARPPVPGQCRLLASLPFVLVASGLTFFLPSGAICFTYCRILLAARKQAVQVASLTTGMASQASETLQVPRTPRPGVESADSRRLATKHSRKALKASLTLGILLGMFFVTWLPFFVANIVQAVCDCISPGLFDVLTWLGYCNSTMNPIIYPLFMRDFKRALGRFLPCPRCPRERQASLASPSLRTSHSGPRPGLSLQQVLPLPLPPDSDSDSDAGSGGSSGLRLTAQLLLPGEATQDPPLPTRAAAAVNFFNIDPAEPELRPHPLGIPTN

Compound | Ki [nM]
O=S(=O)(c1ccccc1)n1cc(C(F)F)c2c(N3CCNCC3)cccc21 [Example 1, 3-(difluoromethyl)-1-(phenylsulfonyl)-4-(piperazin-1-yl)-1H-indole] | 1.6
Cc1ccc(S(=O)(=O)n2cc(C(F)F)c3c(N4CCNCC4)cccc32)cc1 [Example 7, 3-(difluoromethyl)-4-(piperazin-1-yl)-1-tosyl-1H-indole] | 6.4
COc1ccc(S(=O)(=O)n2cc(C(F)F)c3c(N4CCNCC4)cccc32)cc1 [Example 8, 3-(difluoromethyl)-1-((4-methoxyphenyl)sulfonyl)-4-(piperazin-1-yl)-1H-indole] | 12
O=S(=O)(c1ccc2ccccc2c1)n1cc(C(F)F)c2c(N3CCNCC3)cccc21 [Example 10, 3-(difluoromethyl)-1-(naphthalen-2-ylsulfonyl)-4-(piperazin-1-yl)-1H-indole] | 0.5
COc1ccc(S(=O)(=O)n2cc(C(F)F)c3cc(N4CCNCC4)ccc32)cc1 [Example 16, 3-(difluoromethyl)-1-((4-methoxyphenyl)sulfonyl)-5-(piperazin-1-yl)-1H-indole] | 67
O=S(=O)(c1ccccc1C(F)(F)F)n1cc(C(F)F)c2c(N3CCNCC3)cc(Cl)cc21 [Example 23, 6-chloro-3-(difluoromethyl)-4-(piperazin-1-yl)-1-((2-(trifluoromethyl)phenyl)sulfonyl)-1H-indole] | 9.3
O=S(=O)(c1ccccc1F)n1cc(C(F)F)c2c(N3CCNCC3)cc(Cl)cc21 [Example 24, 6-chloro-3-(difluoromethyl)-1-((2-fluorophenyl)sulfonyl)-4-(piperazin-1-yl)-1H-indole] | 1.6

Next, values leading:

Ki [nM] | Compound
11 | O=S(=O)(c1ccccc1)n1cc(C(F)F)c2cc(N3CCNCC3)ccc21 [Example 11, 3-(difluoromethyl)-1-(phenylsulfonyl)-5-(piperazin-1-yl)-1H-indole]
30 | O=S(=O)(c1ccccc1F)n1cc(C(F)F)c2cc(N3CCNCC3)ccc21 [Example 12, 3-(difluoromethyl)-1-((2-fluorophenyl)sulfonyl)-5-(piperazin-1-yl)-1H-indole]
13 | O=S(=O)(c1ccccc1Cl)n1cc(C(F)F)c2cc(N3CCNCC3)ccc21 [Example 13, 1-((2-chlorophenyl)sulfonyl)-3-(difluoromethyl)-5-(piperazin-1-yl)-1H-indole]
20 | O=S(=O)(c1ccccc1Br)n1cc(C(F)F)c2cc(N3CCNCC3)ccc21 [Example 14, 1-((2-bromophenyl)sulfonyl)-3-(difluoromethyl)-5-(piperazin-1-yl)-1H-indole]
17 | Cc1ccc(S(=O)(=O)n2cc(C(F)F)c3cc(N4CCNCC4)ccc32)cc1 [Example 15, 3-(difluoromethyl)-5-(piperazin-1-yl)-1-tosyl-1H-indole]
13 | O=S(=O)(c1cccc(F)c1)n1cc(C(F)F)c2cc(N3CCNCC3)ccc21 [Example 17, 3-(difluoromethyl)-1-((3-fluorophenyl)sulfonyl)-5-(piperazin-1-yl)-1H-indole]
15 | O=S(=O)(c1cccc(Cl)c1)n1cc(C(F)F)c2cc(N3CCNCC3)ccc21 [Example 18, 1-((3-chlorophenyl)sulfonyl)-3-(difluoromethyl)-5-(piperazin-1-yl)-1H-indole]
13 | O=S(=O)(c1cccc(Br)c1)n1cc(C(F)F)c2cc(N3CCNCC3)ccc21 [Example 19, 1-((3-bromophenyl)sulfonyl)-3-(difluoromethyl)-5-(piperazin-1-yl)-1H-indole]
44 | O=S(=O)(c1ccc(Cl)cc1)n1cc(C(F)F)c2cc(N3CCNCC3)ccc21 [Example 20, 1-((4-chlorophenyl)sulfonyl)-3-(difluoromethyl)-5-(piperazin-1-yl)-1H-indole]
44 | O=S(=O)(c1ccc(Br)cc1)n1cc(C(F)F)c2cc(N3CCNCC3)ccc21 [Example 21, 1-((4-bromophenyl)sulfonyl)-3-(difluoromethyl)-5-(piperazin-1-yl)-1H-indole]
